ChEMBL document CHEMBL1201862, “PubChem BioAssay data set” (2004)
The source made the active and inactive calls.

Assays:
Assay type in all cases: functional
[1] = biological target: Ribosomal protein S6 kinase alpha-3 (Homo sapiens, UniProt P51812);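 also: measured within a kinome-wide profiling panel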
[2] = biological target: Tyrosine-protein kinase JAK2 (Homo sapiens, UniProt O60674);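 also: JAK2 tested as one member of a kinase panel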
[3] = biological target: ALK tyrosine kinase receptor (Homo sapiens, UniProt Q9UM73);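 also: ALK tested as one member of a kinase panel screen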
[4] = biological target: Fibroblast growth factor receptor 1 (Homo sapiens, UniProt P11362)
[5] = biological target: High affinity nerve growth factor receptor (Homo sapiens, UniProt P04629);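 also: NTRK1 tested as one member of a kinome-wide profiling panel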
[6] = biological target: Glycogen synthase kinase-3 alpha (Homo sapiens, UniProt P49840);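 also: GSK3A result taken from a broad kinome-wide kinase panel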
[7] = biological target: T1, Receptor-type tyrosine-protein kinase FLT3 (Homo sapiens, UniProt P36888);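 also: FLT3 was tested as one member of a kinome-wide kinase panel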
T1 sequence (P36888 whole entry): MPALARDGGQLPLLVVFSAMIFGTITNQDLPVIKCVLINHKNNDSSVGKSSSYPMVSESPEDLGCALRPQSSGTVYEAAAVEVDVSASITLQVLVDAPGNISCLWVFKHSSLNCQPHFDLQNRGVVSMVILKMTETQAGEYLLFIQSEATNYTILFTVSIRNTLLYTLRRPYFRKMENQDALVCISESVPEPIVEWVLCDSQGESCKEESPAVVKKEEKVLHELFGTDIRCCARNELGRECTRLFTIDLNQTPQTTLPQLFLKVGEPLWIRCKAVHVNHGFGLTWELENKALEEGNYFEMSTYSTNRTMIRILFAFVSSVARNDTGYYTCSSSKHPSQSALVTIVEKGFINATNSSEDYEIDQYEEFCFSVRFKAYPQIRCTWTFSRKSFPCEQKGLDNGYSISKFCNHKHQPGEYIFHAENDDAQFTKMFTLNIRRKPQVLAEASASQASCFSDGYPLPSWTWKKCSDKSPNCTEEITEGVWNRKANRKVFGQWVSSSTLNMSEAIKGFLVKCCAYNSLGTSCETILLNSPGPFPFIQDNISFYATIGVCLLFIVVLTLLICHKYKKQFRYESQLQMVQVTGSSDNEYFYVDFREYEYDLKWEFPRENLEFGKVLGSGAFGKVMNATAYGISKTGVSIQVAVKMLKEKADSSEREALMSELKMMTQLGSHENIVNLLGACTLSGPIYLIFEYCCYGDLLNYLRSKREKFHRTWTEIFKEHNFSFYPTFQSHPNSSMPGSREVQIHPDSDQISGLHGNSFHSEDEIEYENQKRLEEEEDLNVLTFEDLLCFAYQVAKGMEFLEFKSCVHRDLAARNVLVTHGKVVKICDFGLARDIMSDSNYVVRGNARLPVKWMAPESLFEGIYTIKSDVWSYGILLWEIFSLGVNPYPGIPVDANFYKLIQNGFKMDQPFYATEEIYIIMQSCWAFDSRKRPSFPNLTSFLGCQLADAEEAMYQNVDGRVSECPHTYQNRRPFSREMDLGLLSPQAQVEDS

[8] = biological target: G protein-coupled receptor kinase 5 (Homo sapiens, UniProt P34947); test: Navigating the Kinome. Panel member name: GPRK5
[9] = biological target: Maternal embryonic leucine zipper kinase (Homo sapiens, UniProt Q14680)
[10] = biological target: Leucine-rich repeat serine/threonine-protein kinase 2 (Homo sapiens, UniProt Q5S007);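 also: value from a broad kinome-wide panel profiling study in which LRRK2 was one of the kinases tested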
[11] = biological target: Tyrosine-protein kinase Fyn (Homo sapiens, UniProt P06241)
[12] = biological target: T2, Inhibitor of nuclear factor kappa-B kinase subunit epsilon (Homo sapiens, UniProt Q14164); test: Navigating the Kinome. Panel member name: IKBKE
T2 sequence (Q14164 whole entry): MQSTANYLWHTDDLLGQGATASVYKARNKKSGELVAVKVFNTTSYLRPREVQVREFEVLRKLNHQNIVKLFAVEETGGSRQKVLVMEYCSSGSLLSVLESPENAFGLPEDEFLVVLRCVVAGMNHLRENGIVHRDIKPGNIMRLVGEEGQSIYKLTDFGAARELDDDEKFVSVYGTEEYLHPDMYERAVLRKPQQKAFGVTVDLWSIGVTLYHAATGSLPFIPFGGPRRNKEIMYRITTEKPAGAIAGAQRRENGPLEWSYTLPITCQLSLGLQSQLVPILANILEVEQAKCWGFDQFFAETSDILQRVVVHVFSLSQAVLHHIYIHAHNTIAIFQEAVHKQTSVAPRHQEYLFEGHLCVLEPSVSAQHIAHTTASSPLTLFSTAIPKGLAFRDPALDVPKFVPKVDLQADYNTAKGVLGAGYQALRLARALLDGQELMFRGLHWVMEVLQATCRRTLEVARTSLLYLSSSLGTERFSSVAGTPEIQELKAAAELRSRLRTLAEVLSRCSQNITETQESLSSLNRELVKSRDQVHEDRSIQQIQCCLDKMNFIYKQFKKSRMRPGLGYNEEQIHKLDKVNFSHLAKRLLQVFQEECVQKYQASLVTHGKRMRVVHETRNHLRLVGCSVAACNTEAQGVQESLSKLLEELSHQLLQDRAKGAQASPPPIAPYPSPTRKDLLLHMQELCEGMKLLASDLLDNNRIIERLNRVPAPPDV

[13] = biological target: Calcium/calmodulin-dependent protein kinase type II subunit alpha (Homo sapiens, UniProt Q9UQM7); test: Navigating the Kinome. Panel member name: CAMK2A
[14] = biological target: Leukocyte tyrosine kinase receptor (Homo sapiens, UniProt P29376); test: Navigating the Kinome. Panel member name: LTK
[15] = biological target: Serine/threonine-protein kinase Chk1 (Homo sapiens, UniProt O14757);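 also: measured as one member of a kinome-wide kinase profiling panel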
[16] = biological target: Aurora kinase B (Homo sapiens, UniProt Q96GD4)
[17] = biological target: T3, Serine/threonine-protein kinase Nek2 (Homo sapiens, UniProt P51955)
T3 sequence (P51955 whole entry): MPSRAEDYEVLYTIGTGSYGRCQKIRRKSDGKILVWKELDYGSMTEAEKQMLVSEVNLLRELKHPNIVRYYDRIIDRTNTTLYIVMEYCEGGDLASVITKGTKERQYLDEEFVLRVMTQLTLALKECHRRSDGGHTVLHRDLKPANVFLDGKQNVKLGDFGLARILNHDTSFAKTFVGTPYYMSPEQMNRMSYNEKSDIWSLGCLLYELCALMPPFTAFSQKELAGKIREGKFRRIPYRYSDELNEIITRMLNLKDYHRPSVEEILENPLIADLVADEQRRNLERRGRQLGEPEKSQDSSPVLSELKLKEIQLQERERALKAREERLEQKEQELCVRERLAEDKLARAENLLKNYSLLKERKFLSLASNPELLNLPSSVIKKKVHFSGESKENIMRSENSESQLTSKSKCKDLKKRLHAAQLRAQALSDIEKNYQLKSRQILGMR

Measured: Ki

Chain of Tyrosine-protein kinase JAK2 (O60674 whole entry): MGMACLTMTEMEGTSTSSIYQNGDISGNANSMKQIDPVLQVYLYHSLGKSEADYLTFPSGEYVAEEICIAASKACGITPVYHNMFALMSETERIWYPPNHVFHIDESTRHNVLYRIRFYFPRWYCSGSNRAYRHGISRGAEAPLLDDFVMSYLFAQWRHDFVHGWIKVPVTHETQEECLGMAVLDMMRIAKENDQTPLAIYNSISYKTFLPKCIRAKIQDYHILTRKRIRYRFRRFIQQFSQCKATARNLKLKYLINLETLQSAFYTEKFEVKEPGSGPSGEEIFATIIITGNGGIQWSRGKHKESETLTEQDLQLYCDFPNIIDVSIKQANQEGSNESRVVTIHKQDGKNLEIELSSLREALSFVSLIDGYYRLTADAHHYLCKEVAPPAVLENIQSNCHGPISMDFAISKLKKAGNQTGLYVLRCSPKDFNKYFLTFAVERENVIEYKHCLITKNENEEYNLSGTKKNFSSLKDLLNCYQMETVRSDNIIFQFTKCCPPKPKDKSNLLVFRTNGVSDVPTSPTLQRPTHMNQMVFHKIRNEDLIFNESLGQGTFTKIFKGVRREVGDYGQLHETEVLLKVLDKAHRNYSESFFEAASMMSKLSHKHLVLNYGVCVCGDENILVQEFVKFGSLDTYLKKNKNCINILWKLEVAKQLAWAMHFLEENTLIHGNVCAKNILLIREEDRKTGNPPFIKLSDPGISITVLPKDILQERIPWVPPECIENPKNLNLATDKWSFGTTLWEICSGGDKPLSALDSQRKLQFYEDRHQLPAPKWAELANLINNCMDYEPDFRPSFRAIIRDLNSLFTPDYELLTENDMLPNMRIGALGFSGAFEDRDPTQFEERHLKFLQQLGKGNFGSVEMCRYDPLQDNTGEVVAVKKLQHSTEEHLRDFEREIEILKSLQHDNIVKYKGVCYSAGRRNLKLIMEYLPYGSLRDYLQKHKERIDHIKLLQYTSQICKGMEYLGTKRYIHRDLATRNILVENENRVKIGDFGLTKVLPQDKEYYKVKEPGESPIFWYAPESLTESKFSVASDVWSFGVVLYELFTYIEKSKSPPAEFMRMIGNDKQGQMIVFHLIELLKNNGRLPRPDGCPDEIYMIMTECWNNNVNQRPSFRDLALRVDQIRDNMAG
Chain of Tyrosine-protein kinase Fyn (P06241 whole entry): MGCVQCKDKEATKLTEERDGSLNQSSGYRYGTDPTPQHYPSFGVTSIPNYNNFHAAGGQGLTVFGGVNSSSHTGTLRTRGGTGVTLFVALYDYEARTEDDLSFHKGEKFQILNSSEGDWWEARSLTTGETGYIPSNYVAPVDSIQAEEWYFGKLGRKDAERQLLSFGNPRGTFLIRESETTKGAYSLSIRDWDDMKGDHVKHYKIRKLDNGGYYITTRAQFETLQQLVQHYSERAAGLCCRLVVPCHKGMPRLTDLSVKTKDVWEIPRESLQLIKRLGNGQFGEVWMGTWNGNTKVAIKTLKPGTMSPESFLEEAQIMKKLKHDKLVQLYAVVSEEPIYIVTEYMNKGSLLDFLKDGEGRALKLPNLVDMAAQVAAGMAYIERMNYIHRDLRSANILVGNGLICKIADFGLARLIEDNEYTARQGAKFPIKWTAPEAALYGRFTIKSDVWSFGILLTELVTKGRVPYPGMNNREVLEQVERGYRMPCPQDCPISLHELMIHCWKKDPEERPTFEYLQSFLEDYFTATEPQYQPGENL
Chain of Calcium/calmodulin-dependent protein kinase type II subunit alpha (Q9UQM7 whole entry): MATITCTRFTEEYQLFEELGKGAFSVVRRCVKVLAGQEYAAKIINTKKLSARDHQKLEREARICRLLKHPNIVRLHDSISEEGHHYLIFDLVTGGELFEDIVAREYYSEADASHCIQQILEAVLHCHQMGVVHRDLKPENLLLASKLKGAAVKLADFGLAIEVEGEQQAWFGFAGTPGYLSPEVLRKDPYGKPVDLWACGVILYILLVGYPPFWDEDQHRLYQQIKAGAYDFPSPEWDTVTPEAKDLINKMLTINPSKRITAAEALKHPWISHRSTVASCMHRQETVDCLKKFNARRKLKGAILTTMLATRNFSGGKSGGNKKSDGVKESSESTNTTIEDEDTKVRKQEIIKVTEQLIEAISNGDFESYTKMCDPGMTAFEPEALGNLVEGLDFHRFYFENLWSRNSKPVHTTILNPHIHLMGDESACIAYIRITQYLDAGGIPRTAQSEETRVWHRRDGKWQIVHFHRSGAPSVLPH
Chain of Leucine-rich repeat serine/threonine-protein kinase 2 (Q5S007 whole entry): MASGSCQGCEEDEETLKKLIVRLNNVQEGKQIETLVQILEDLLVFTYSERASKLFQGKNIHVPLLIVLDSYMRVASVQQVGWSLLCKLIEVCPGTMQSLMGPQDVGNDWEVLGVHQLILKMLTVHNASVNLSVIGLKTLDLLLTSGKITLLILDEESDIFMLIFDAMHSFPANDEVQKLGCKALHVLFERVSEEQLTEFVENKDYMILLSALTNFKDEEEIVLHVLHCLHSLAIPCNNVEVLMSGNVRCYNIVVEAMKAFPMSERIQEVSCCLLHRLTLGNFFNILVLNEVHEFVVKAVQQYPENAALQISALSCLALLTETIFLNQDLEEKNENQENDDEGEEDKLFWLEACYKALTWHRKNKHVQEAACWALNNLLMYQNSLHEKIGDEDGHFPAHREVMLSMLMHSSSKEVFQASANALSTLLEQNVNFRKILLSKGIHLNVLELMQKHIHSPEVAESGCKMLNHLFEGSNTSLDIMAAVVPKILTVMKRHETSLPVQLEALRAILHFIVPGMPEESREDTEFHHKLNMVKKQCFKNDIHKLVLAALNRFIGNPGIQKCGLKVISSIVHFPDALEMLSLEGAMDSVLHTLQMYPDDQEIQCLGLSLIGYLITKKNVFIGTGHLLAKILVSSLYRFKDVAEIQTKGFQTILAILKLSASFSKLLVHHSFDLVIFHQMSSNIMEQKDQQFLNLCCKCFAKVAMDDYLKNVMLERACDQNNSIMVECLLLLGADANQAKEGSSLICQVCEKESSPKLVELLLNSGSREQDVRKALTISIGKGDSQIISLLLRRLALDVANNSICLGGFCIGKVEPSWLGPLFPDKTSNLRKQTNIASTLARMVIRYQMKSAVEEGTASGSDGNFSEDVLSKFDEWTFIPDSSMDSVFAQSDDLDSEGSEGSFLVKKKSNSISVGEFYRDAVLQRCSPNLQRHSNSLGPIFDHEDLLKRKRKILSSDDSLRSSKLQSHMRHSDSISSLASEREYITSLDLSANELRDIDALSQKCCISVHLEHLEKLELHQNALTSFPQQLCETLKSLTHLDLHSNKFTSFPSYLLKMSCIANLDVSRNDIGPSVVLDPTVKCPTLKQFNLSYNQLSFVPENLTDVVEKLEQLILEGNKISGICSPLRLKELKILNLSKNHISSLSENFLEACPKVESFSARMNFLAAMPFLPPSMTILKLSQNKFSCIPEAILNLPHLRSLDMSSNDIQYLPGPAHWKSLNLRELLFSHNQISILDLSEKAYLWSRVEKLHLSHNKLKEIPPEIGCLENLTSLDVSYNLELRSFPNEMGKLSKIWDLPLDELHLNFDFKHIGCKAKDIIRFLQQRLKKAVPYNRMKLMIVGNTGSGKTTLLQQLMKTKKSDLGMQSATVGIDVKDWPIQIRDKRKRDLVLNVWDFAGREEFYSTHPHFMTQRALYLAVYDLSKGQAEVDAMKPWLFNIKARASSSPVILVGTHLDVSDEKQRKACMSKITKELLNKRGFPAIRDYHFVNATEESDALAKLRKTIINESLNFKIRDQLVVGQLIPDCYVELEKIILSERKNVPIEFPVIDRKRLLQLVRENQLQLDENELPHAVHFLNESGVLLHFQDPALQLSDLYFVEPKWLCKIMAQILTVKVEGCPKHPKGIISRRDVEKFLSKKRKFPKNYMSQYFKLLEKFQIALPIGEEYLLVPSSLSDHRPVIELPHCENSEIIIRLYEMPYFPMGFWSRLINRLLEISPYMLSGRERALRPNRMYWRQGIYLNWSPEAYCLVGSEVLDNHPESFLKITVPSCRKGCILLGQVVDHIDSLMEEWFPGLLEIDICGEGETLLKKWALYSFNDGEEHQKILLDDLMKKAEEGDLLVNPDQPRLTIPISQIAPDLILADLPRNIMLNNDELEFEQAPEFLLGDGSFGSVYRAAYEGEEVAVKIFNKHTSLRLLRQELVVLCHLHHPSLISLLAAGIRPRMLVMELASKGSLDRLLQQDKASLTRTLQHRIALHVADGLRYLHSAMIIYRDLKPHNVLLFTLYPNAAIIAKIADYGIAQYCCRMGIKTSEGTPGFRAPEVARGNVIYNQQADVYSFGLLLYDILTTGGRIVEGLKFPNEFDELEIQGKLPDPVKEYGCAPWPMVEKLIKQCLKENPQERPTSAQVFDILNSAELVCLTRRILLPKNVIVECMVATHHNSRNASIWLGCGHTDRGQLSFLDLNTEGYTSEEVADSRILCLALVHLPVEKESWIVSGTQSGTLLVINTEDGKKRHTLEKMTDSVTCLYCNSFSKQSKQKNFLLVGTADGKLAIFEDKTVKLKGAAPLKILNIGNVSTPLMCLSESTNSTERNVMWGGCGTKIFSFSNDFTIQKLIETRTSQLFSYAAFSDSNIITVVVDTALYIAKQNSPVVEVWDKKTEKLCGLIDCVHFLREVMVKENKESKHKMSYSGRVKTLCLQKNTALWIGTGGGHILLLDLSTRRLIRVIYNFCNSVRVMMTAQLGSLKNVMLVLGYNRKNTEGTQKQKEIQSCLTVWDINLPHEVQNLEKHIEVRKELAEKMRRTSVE
Chain of Aurora kinase B (Q96GD4 whole entry): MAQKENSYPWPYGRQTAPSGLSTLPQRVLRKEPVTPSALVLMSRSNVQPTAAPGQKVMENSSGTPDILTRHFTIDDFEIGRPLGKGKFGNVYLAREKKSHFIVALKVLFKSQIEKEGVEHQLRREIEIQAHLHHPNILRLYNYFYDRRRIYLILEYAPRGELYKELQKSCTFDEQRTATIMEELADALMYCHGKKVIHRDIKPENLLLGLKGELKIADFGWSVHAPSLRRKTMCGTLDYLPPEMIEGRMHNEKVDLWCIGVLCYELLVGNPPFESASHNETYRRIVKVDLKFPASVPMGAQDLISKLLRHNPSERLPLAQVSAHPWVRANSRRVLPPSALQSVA

CCCCC(=O)Nc1cc(-c2c[nH]c3ncccc23)cc(Cl)n1
inactive: [1] > 3.98 µM | [2] > 2.51 µM | [3] > 6.31 µM | [4] > 3.98 µM | [5] > 3.16 µM | [6] > 3.98 µM | [7] > 2.51 µM | [8] > 3.98 µM | [9] > 2 µM | [10] > 2.51 µM | [11] > 6.31 µM | [12] > 3.16 µM | [13] > 7.94 µM | [14] > 2.51 µM

Oc1ccc(-c2nc(-c3ccncc3)c(-c3ccc(F)cc3)[nH]2)cc1 [SB-202190]
inactive: [1] > 3.98 µM | [2] > 2.51 µM | [3] > 6.31 µM | [4] > 3.98 µM | [5] > 3.16 µM | [6] > 3.98 µM | [7] > 2.51 µM | [15] > 3.16 µM | [8] > 3.98 µM | [9] > 2 µM | [10] > 2.51 µM | [16] > 3.98 µM | [11] > 6.31 µM | [17] > 3.16 µM | [12] > 3.16 µM | [13] > 3.98 µM | [14] > 1.58 µM

COc1cccc(C(C)NC(=O)c2sc(-c3ccncc3)nc2C)c1 (configuration not stated)
inactive: [1] > 3.98 µM | [2] > 2.51 µM | [3] > 6.31 µM | [4] > 3.98 µM | [5] > 3.16 µM | [6] > 3.98 µM | [7] > 3.16 µM | [15] > 3.16 µM | [8] > 3.98 µM | [10] > 2.51 µM | [16] > 3.98 µM | [11] > 6.31 µM | [17] > 3.16 µM | [12] > 3.16 µM | [13] > 3.98 µM | [14] > 2.51 µM
